Data on two molecules can be found in US8961944B2, “Use of delta-tocopheryl-carbohydrate as a depigmenting agent” (Pierre Fabre Dermo-Cosmetique, priority 2009, dated 2015).

In one experiment the test system is B16-F10 cells. Nature of the experiment: Inhibition of α-MSH-stimulated melanogenesis (intracellular melanin) in B16-F10 cells. Format: cell-based. The following applies: for percent inhibition of intracellular melanin / inhibition at 50 µM: 50 μM; for percent inhibition of intracellular melanin / inhibition at 10 µM / inhibition at 50 µM: α-MSH (0.1 μM) stimulation; for inhibition at 10 µM / inhibition at 50 µM: Mus musculus, read-out: percent inhibition of intracellular melanin. The procedure: B16-F10 cells are inoculated in 96-well plates in DMEM (Dulbecco's Modified Eagle's Medium) supplemented with Foetal Calf Serum (FCS) and incubated for 24 hours at 37° C., 5% CO2. Melanogenesis is stimulated by α-MSH (0.1 μM) for 3 or 5 days. Each concentration of active substance is tested in triplicate. Total melanin and intracellular melanin dissolved in lysis buffer are then assayed by reading absorbance at 405 nm. Total proteins are assayed in the lysate according to protocol “SRD/TO/154/012” and the results are expressed in mg melanin/mg proteins. The percentage of activity is calculated as follows: % inhibition=[([…])/NMC]×100 NMC being the normalised mean of the control NMT being the normalised mean of the treated

The next experiment addresses T1, glucocerebrosidase (Homo sapiens, UniProt P04062).
T1 sequence (P04062 40-536): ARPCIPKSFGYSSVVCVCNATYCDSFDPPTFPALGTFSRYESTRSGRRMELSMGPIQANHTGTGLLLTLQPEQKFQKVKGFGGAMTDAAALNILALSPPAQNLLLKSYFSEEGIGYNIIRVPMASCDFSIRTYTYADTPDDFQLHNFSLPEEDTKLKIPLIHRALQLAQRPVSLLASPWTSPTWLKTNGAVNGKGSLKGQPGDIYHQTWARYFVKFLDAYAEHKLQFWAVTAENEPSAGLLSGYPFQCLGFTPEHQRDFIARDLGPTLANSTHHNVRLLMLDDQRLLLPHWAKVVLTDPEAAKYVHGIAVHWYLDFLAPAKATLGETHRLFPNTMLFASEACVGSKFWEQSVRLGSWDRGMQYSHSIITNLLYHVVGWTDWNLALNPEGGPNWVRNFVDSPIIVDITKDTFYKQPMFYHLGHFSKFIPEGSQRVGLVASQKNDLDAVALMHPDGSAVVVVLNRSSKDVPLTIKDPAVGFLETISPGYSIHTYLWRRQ
The conditions noted are these: compared with reference derivative 4-methylumbelliferyl glucopyranoside; cited from earlier work.

For experiment [1] the following is noted: compared with delta-tocopherol; cited from earlier work.

Like-named read-outs stand apart in the source and are kept apart here.

On to `Cc1cc(O)cc2c1O[C@](C)(CCC[C@H](C)CCC[C@H](C)CCCC(C)C)CC2` [Delta-tocopherol, delta-tocopherol, reference compound], for which the entries for the “percent inhibition of intracellular melanin” value in the experiment on B16-F10 cells (3 days) and in the experiment on B16-F10 cells (5 days) were 41% and 48%, respectively.

One may read the inhibition as the change of the read-out against control, counted positive when it falls. With `Cc1cc(O[C@@H]2O[C@H](CO)[C@@H](O)[C@H](O)[C@H]2O)cc2c1O[C@](C)(CCC[C@H](C)CCC[C@H](C)CCCC(C)C)CC2` [Delta-tocopheryl-glucopyranoside, delta-tocopheryl-glucopyranoside], the inhibition at 10 µM in the experiment on B16-F10 cells (B16-F10, 72 h, 3 days) was determined as 22%; in the experiment on B16-F10 cells (B16-F10, 120 h, 5 days), 38%. Besides, the inhibition at 50 µM in the experiment with B16-F10 cells (B16-F10, 72 h, 3 days) stood at 68%; in the experiment on B16-F10 cells (B16-F10, 120 h, 5 days), 90%. In the experiment with B16-F10 cells (compared with delta-tocopherol (see example 1)), the depigmenting activity result is reported as “quite higher than that of delta-tocopherol”. At glucocerebrosidase, the “release of delta-tocopherol by enzymatic hydrolysis” value is on record as “slowly releases delta-tocopherol, with lower kinetics than a reference derivative”. Also, the antioxidant capacity result in experiment [1] is reported as “weak antioxidant capacity compared to that of delta-tocopherol”.
